The source of these data is patent US8039639B2, “Kinase inhibitors and methods of use thereof” (Array BioPharma Inc., priority 2006, dated 2011).

One data set deals with RPMI 8226. Kind of data set: RPMI 8226 cell viability (CellTiter Blue). The format is cell-based. Particulars: Homo sapiens; RPMI 8226, 72 hours; read-out: Proliferation IC50. On the procedure:
Cell viability was then measured using CellTiter Blue (Promega) to determine IC50 values for each compound (Table 8). […] MG-132 produced an IC50 that was within historical ranges of in-house testing (Table 8).

Another data set is described as follows: Solubility determination. The data set is classed as physicochemical.
A further data set concerns K562 cells. The experiment in a line: K562 subcutaneous tumor model (BCR-Abl-driven tumors). The data set is classed as in vivo, Female Scid-beige mice. Particulars: K562 tumors, PO ×7, dosed as Compound 74. As for the experimental part: Test compounds were administered by oral gavage at the indicated doses and schedules when tumors reached 200±50 mm^3 in size. […] Tumor size and body weight were monitored throughout the study.

The target of a further data set is Abl (Homo sapiens, UniProt P00519). Kind of data set: protein kinase IC50 determination (ATP at Km). The format is biochemical. Particulars: ATP concentration at Km.
Chain of Abl (P00519 whole entry, species assumed): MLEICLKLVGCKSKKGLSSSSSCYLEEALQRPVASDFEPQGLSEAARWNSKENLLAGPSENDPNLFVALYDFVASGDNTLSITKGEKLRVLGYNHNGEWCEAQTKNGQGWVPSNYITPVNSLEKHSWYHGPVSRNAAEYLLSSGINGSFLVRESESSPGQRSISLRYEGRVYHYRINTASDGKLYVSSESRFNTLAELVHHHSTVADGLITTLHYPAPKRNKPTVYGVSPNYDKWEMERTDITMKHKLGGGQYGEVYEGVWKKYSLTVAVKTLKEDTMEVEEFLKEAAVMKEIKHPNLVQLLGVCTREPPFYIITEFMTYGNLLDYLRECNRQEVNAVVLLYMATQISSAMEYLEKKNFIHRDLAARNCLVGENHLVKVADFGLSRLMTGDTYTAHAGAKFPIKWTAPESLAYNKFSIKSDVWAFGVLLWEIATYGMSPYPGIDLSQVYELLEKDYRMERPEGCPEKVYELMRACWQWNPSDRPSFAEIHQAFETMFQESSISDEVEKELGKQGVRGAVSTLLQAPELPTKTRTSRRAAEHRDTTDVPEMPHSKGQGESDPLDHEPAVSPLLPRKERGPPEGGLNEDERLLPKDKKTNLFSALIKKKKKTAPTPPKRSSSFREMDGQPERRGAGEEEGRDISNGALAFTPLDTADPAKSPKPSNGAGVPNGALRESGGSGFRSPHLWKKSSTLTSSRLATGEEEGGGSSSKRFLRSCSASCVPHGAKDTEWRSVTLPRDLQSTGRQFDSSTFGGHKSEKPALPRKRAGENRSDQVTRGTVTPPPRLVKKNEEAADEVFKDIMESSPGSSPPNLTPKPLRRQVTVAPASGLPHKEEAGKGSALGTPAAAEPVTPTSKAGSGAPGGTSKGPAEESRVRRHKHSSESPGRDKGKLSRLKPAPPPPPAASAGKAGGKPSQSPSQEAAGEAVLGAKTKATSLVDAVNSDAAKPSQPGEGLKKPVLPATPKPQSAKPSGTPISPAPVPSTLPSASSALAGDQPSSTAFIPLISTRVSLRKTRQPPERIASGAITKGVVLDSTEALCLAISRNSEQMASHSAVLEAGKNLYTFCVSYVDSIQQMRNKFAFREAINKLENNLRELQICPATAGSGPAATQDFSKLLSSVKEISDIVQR
For the next data set, the target named is p38α (Homo sapiens, UniProt Q16539). The experiment in a line: in-house p38α radioactive kinase assay using ATF-2 as a substrate. The data set is classed as biochemical. The following applies: ATF-2 substrate. As for the experimental part:
p38 activity was assayed at room temperature in a 100 μL reaction containing 5 nM activated p38α enzyme and 1 μM ATF-2 (Activating Transcription Factor 2 fusion protein) as the substrate in 25 mM HEPES (pH 7.4), 100 μM Vanadate, 1 mM DTT, 10 mM MgCl2 and 10 μM [γ-^33P]-ATP (˜0.1 μCi P^33/reaction). The reaction was terminated after 30-40 minutes by adding 25% TCA, allowed to stand for 5 minutes, and then transferred directly to a GF-B membrane filter plate. The filter was washed twice for 30 seconds with 0.5% phosphoric acid using a Tomtec Mach III Automated Harvestor. After washing, the vacuum was continued for 30 seconds to dry the filter. Approximately 30 μL of scintillant was added per well to the filter plate and then read in a Liquid Scintillation Counter (Packard TopCount HTS).

In the next data set the target is Tie2 (Homo sapiens, UniProt Q02763). Kind of data set: protein kinase IC50 determination (ATP at Km). The data set is classed as biochemical. Particulars: ATP concentration at Km.
Chain of Tie2 (Q02763 23-1124, species assumed): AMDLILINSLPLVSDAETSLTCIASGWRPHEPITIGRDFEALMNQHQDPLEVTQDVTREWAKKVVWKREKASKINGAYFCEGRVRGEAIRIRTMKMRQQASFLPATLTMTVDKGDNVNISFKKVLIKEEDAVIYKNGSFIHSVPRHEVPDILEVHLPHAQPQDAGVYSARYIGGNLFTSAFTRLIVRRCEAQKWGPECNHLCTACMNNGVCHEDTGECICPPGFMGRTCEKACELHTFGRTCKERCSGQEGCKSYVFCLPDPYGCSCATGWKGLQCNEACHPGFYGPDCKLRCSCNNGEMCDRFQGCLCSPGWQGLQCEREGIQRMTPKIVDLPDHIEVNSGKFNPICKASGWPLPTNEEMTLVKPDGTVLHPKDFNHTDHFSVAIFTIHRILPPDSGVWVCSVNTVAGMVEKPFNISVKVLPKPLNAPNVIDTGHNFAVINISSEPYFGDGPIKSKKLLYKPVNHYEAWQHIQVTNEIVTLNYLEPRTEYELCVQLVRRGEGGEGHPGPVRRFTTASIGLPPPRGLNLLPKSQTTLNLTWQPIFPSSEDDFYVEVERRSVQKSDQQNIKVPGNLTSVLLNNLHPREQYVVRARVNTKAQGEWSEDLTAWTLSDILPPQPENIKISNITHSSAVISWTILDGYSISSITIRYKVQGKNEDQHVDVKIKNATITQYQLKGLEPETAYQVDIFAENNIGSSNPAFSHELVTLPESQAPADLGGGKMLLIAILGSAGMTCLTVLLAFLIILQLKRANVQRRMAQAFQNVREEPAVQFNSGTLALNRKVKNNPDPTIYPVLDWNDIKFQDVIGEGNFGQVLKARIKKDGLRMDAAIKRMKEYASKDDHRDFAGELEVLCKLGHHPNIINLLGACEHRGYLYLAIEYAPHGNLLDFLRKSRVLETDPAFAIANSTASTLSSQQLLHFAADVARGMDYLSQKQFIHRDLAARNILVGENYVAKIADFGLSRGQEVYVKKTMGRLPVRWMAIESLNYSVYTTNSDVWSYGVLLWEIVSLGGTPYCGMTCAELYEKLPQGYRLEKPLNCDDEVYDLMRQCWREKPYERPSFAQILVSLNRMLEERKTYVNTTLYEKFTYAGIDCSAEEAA

Residues, ends and D or L forms follow the SMILES beside them. *: point of attachment. Cbz = O=C(OCc1ccccc1)*

Chain of p38α (Q16539 whole entry, the tested form may be a part): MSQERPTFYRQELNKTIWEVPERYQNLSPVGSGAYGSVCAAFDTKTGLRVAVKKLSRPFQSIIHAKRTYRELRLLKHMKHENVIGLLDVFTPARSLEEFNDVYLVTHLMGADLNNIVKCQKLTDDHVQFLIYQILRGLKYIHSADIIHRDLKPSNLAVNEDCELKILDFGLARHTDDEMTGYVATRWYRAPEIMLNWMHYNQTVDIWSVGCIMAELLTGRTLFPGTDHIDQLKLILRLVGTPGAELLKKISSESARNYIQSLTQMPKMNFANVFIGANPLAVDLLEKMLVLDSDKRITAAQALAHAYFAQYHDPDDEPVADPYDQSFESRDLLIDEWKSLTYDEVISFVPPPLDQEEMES

As to `CC(C)C[C@@H](C=O)NC(=O)[C@H](CC(C)C)NC(=O)[C@H](CC(C)C)NC(=O)OCc1ccccc1` [MG-132, reference compound] (Cbz-Leu-Leu-Leu-aldehyde), the IC50 with RPMI 8226 turned out to be 114 nM.

With `Cc1ccc(-n2nc(C(C)(C)C)cc2NC(=O)NCc2cc(F)ccc2Oc2ccc3c(cnn3CCOP(=O)(O)O)c2)cc1` [Compound 74, 2-(5-(2-(3-(3-tert-butyl-1-p-tolyl-1H-pyrazol-5-yl)ureido)methyl)-4-fluorophenoxy)-1H-indazol-1-yl)ethyl dihydrogenphosphate], the solubility in “Solubility determination” (pH 1.2, simulated gastric fluid) was < 1000 µg/mL. Also, the “% Regression” value in the data set on K562 cells (30 mg/kg BID) is given as “tumor stasis”; with K562 cells (100 mg/kg BID), 94%; in the data set on K562 cells (100 mg/kg QD) it was “tumor stasis”.

Regarding `Cn1nc(C(C)(C)C)cc1NC(=O)NCc1cc(F)ccc1Oc1ccc2c(cnn2CC(C)(C)O)c1` [Example 138], the results for the IC50 at Abl, on p38α and against Tie2 were > 500 nM, < 2 nM and > 500 nM, respectively. Besides, the solubility in “Solubility determination” (pH 6.5, aqueous buffer) is < 1 µg/mL; in “Solubility determination” (pH 7.4, aqueous buffer), < 1 µg/mL.

As for `Cc1ccc(-n2nc(C(C)(C)C)cc2NC(=O)NCc2cc(F)ccc2Oc2ccc3c(cnn3C)c2)cc1` [Example 94], the IC50 is 10 nM at Abl, < 2 nM at p38α and 4 nM against Tie2. The solubility was < 1 µg/mL in “Solubility determination” (pH 6.5, aqueous buffer) and < 1 µg/mL in “Solubility determination” (pH 7.4, aqueous buffer).
